Earlier results in US20260373185A1, “METHODS FOR SEQUENTIALLY ADMINISTERING TAS-102 AND BCL-2 INHIBITOR FOR CANCER TREATMENT” (Health Research, Inc., priority 2023, published 2026).
pKi: −log10 of the molar value. Blank lines part the entries; values can stand above or below the compound they belong to.

Key:
[1] = system: MCL-1
[2] = biological target: BCL-w; details: cell-free assays
[3] = system: A1; details: relative to BCL-xL, BCL-2 and BCL-w
[4] = system: p53-deficient cancers; details: current DNA-damaging drugs

binding to Mcl-1 ([1]; relative to BCL-xL, BCL-2 and BCL-w): binds more weakly
pKi [2]: ≥ 9.00
binding to A1 [3]: binds more weakly
Structure (SMILES): CC1(C)CCC(c2ccc(Cl)cc2)=C(CN2CCN(c3ccc(C(=O)NS(=O)(=O)c4ccc(N[C@H](CCN5CCOCC5)CSc5ccccc5)c(S(=O)(=O)C(F)(F)F)c4)cc3)CC2)C1 [Navitoclax]

Structure (SMILES): CC1(C)CCC(CN2CCN(c3ccc(C(=O)NS(=O)(=O)c4ccc(NCC5CCOCC5)c([N+](=O)[O-])c4)c(Oc4cnc5[nH]ccc5c4)c3)CC2)=C(c2ccc(Cl)cc2)C1 [Venetoclax]
activity to MCL-1 ([1]; cell-free assays): no activity

Structure (SMILES): N.N.[Cl][Pt][Cl] [cisplatin]
toxicity by p53 status [4]: toxicity regardless of p53 status

Structure (SMILES): Nc1ccn([C@@H]2O[C@H](CO)[C@@H](O)C2(F)F)c(=O)n1 [gemcitabine]
toxicity by p53 status [4]: toxicity regardless of p53 status
